Source: patent US10442835B2, “Water-soluble rapamycin derivatives” (Zhejiang Hisun Pharmaceutical Co., Ltd., priority 2016, dated 2019)
Where “and” joins values, the source holds several entries; their conditions need not be identical. Equal entries are not always repeated.

Key:
[1] = system: human liver cancer cell HepG2; assay: In vitro activity assay, growth of HepG2 (thymidine incorporation); assay type: cell-based; conditions: 48 h
From the text: (§1) The anti-tumor activity and toxicity of the compounds according to the present invention can be assayed through standard operational procedures of pharmacological experiment. The experiments carried out herein can test the inhibitory effect of the compounds according to the present invention on the growth of human liver cancer cell HepG2, lung cancer cell NCI460, prostate cancer cell DU145, prostate cancer cell PC3, and human breast cancer cell MDA-MB-435. The operational procedure used is briefly described below by taking the inhibitory activity assay against human liver cancer cell HepG2 as an example.
Human liver cancer cell HepG2 grew in the follow medium:
Preparation of the growth medium: BRL minimum essential medium with Earle Salts (500 mL), with the addition of the following agents:
(§2) The operational procedure for the assay is as follows:
(§3) 1. Cells after being trypsinized were inoculated in 96-well plates at a concentration of 10^4 cells/well, and allowed to grow in a medium with a final volume of 200 μL. The 96-well plates after inoculation are allowed to stand for 24 hours at 37° C., in order to allow the cells to adhere to the surface of the wells.
(§4) 2. The medium was removed by carefully pipetting without disturbing the cell monolayer. 200 μL Fresh medium was added into each well. It is arranged to make it possible to collect samples from enough wells to run the experiments in triplicate.
(§5) 3. The compounds to be tested according to the present invention were dissolved into 10 μL phosphate buffered solution (PBS) and incubated for 48 h at 37° C.
(§6) 4. In the last 6 h of incubation, cells in each well of the 96-well plates were labeled by 1 microcurie T thymidine (New England Nuclear thymidine), by adding 10 μL PBS containing 1 microcurie T thymidine (which was added into the PBS on the day of collecting the samples for test). The 96-well plates were then returned to the incubator and incubated for the last 6 h.
(§7) 5. Without disturbing the cell monolayer, the radioactive medium was removed by pipetting. Then 50 μL of BRL 10×trypsin was added to each well, followed by incubation at 37° C. for 10 minutes or until the cell monolayer was detached from the bottom (or the wall) of each well. Samples were collected on glass-fiber diskettes using a Skatron 96-well cell harvester. Cells depositing on the glass-fiber diskettes were counted in a Wallac Betaplate counter.

lung cancer cell NCI460 = assay: In vitro activity assay, growth of NCI460; assay type: cell-based; conditions: NCI-460, 48 h
From the text: as §1, §2, §3, §4, §5, §6, §7

[2] = system: prostate cancer cell DU145; assay: In vitro activity assay, growth of DU145; assay type: cell-based; conditions: Homo sapiens; DU-145; 48 h
From the text: as §1, §2, §3, §4, §5, §6, §7

prostate cancer cell PC3 = assay: In vitro activity assay, growth of PC3; assay type: cell-based; conditions: 48 h
From the text: as §1, §2, §3, §4, §5, §6, §7

[3] = system: human breast cancer cell MDA-MB-435; assay: In vitro activity assay, growth of MDA-MB-435; assay type: cell-based; conditions: 48 h
From the text: as §1, §2, §3, §4, §5, §6, §7

[4] = system: human lung cancer cell NCI-H460; assay: In vivo inhibitory activity against NCI-H460 tumor in nude mice; conditions: everolimus 5 mg/kg, compound I-1 6.8 mg/kg, qw 4×
DU145 = assay: In vivo tumor inhibitory efficacy against DU145 tumor in nude mice, intragastrical vs injection; conditions: G1 everolimus 5 mg/kg intragastrical, 3×/w, 4 w
Experimental: (§8) DU145 (the 3rd generation) tumors in the rapid proliferation stage inoculated in the axilla of nude mice were cut into tumor lumps with a size of 1 mm*1 mm*1 mm and then were inoculated subcutaneously to the right limb of nude mice using a trocar under a sterile condition. When the tumors grow to 150-200 mm^3, the mice were randomly divided into three groups and then administrated with the compounds for 4 weeks. The major diameter (a) and the minor diameter (b) of the tumors were measured 2 or 3 times a week. The tumor volume (TV) was calculated with the following equation: TV=½×a×b^2. Tumors were stripped and weighted at Day 28 and the tumor inhibition rate was calculated using the following equation: (tumor weight of control−tumor weight of experimental group)/tumor weight of control×100%.
(§9) The nude mice were divided into 3 groups with 4 mice per group when the tumors averagely grew to about 185-200 mm^3, depending on the growth regularity of the tumor and the dosage regimen.

[5] = system: human renal cell carcinoma OS-RC-2; assay: In vivo inhibitory activity against human renal cell carcinoma OS-RC-2 in nude mice
Experimental: The tumor inhibition rate was calculated.

[6] = Body weight of DU145 tumor nude mice; conditions: G1 everolimus 5 mg/kg intragastrical, 3×/w, 4 w;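 note: dosing started once xenografts reached 150-200 mm^3, with mice randomized into three groups, loss of body weight served as an indirect sign of drug toxicity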
Experimental: as §8, §9
G1: positive drug group: Everolimus (5 mg/kg, qw, 4 w, 3×/w); administration route: intragastrical administration;

[7] = Body weight of NCI-H460 tumor nude mice; conditions: everolimus 5 mg/kg, compound I-1 6.8 mg/kg, qw 4×;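 note: Tumor-bearing mice dosed for 4 weeks once tumors reached 150–200 mm^3, with a vehicle control group, and body weight loss taken as an indirect sign of drug toxicity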
Experimental: NCI-H460 (the 3rd generation) tumors in the rapid proliferation stage inoculated in the axilla of nude mice were cut into tumor lumps with a size of 1 mm*1 mm*1 mm and then were inoculated subcutaneously to the right limb of nude mice using a trocar under a sterile condition. When the tumors grew to 150˜200 mm^3, the mice were divided into groups and then administrated with the compounds for 4 weeks. The major diameter (a) and the minor diameter (b) of the tumors were measured two or three times a week. The tumor volume (TV) and the relative tumor proliferation rate (T/C) were calculated. The equation for calculating the tumor volume is: TV=½×a×b^2. The equation for calculating the relative tumor proliferation rate is T/C=TRTC/CRTV (TRTC: average relative tumor volume in the treatment group; CRTV: average relative tumor volume in the vehicle control group). Tumors were stripped and weighted at Day 28 and the tumor-inhibition rate was calculated with the following equation: (tumor weight of control−tumor weight of experimental group)/tumor weight of control×100%.
Grouping method: the mice were divided into 3 groups with 6 mice per group when the tumors averagely grew to about 195 mm^3, depending on the growth regularity of the tumor and the dosage regimen. Administration route: intragastrical administration.
G1: Control (vehicle, qw 4×, iv)
G2: Positive drug group: Everolimus (5 mg/kg, qw 4×, iv)

Q: Which IC50 [1] does the source give for `CO[C@H]1C[C@@H]2CC[C@@H](C)[C@@](O)(O2)C(=O)C(=O)N2CCCC[C@H]2C(=O)O[C@H]([C@H](C)C[C@@H]2CC[C@@H](OCCO)[C@H](OC)C2)CC(=O)[C@H](C)/C=C(\C)[C@@H](O)[C@@H](OC)C(=O)[C@H](C)C[C@H](C)/C=C/C=C/C=C/1C` [Everolimus, reference compound] here?
A: 52.29 ± 0.006 µM

Q: And the IC50 (lung cancer cell NCI460)?
A: 99.811 ± 0.004 µM

Q: And the IC50 [2]?
A: 57.327 ± 0.005 µM

Q: What about the IC50 (prostate cancer cell PC3) of the same molecule?
A: 30.27 ± 0.006 µM

Q: And the IC50 [3]?
A: 62.57 ± 0.003 µM

Q: What about the “Mean Volume of Tumor” value ([4]; Day 0) of the same molecule?
A: 194.8659 mm^3

Q: What about the “Mean Volume of Tumor” value ([4]; Day 3) of the same molecule?
A: 264.7517 mm^3

Q: And the “TRTV (average relative tumor volume in the treatment group)” value ([4]; Day 3)?
A: 1.3586

Q: What about the “Mean Volume of Tumor” value ([4]; Day 7) of the same molecule?
A: 356.6133 mm^3

Q: And the “TRTV (average relative tumor volume in the treatment group)” value ([4]; Day 7)?
A: 1.8300

Q: What about the “Mean Volume of Tumor” value ([4]; Day 10) of the same molecule?
A: 457.1105 mm^3

Q: What about the “TRTV (average relative tumor volume in the treatment group)” value ([4]; Day 10) of the same molecule?
A: 2.3458

Q: And the “Mean Volume of Tumor” value ([4]; Day 14)?
A: 626.5192 mm^3

Q: What about the “TRTV (average relative tumor volume in the treatment group)” value ([4]; Day 14) of the same molecule?
A: 3.2151

Q: And the “Mean Volume of Tumor” value ([4]; Day 17)?
A: 730.3766 mm^3

Q: And the “TRTV (average relative tumor volume in the treatment group)” value ([4]; Day 17)?
A: 3.7481

Q: What about the “Mean Volume of Tumor” value ([4]; Day 21) of the same molecule?
A: 1386.2102 mm^3

Q: And the “TRTV (average relative tumor volume in the treatment group)” value ([4]; Day 21)?
A: 6.6005

Q: And the “Mean Volume of Tumor” value ([4]; Day 24)?
A: 1593.5901 mm^3

Q: What about the “TRTV (average relative tumor volume in the treatment group)” value ([4]; Day 24) of the same molecule?
A: 7.1515

Q: And the “Tumor Inhibition Rate” value ([4]; Day 28, by tumor weight)?
A: 56% and 56.01%

Q: What about the “Mean Volume of Tumor” value ([4]; Day 28) of the same molecule?
A: 1955.7073 mm^3

Q: What about the “TRTV (average relative tumor volume in the treatment group)” value ([4]; Day 28) of the same molecule?
A: 9.5230

Q: What about the “Tumor Weight ± SD” value ([4]; Day 28) of the same molecule?
A: 1.1741 ± 0.3687 g

Q: And the “Mean Volume of Tumor” value (DU145; Day 0)?
A: 198.71 mm^3

Q: What about the “Mean Volume of Tumor” value (DU145; Day 3) of the same molecule?
A: 216.57 mm^3

Q: And the “Mean Volume of Tumor” value (DU145; Day 7)?
A: 208.07 mm^3

Q: And the “Mean Volume of Tumor” value (DU145; Day 10)?
A: 215.24 mm^3

Q: What about the “Mean Volume of Tumor” value (DU145; Day 14) of the same molecule?
A: 236.94 mm^3

Q: And the “Mean Volume of Tumor” value (DU145; Day 17)?
A: 268.62 mm^3

Q: And the “Mean Volume of Tumor” value (DU145; Day 21)?
A: 298.50 mm^3

Q: And the “Mean Volume of Tumor” value (DU145; Day 24)?
A: 289.57 mm^3

Q: What about the “Mean Volume of Tumor” value (DU145; Day 28) of the same molecule?
A: 302.22 mm^3

Q: What about the “Tumor Inhibition Rate” value ([5]; G2 everolimus 2 mg/kg ig 3×/qw) of the same molecule?
A: 35.6%

Q: What about the “Tumor Inhibition Rate” value ([5]; G3 everolimus 6 mg/kg ig 3×/qw) of the same molecule?
A: 41.1%

Q: What about the “Tumor Weight ± SD” value ([5]; end of experiment, G3 everolimus 6 mg/kg ig 3×/qw) of the same molecule?
A: 0.4093 ± 0.3863 g

Q: And the “Body Weight, mean value” ([6]; Day 0)?
A: 24.36 g

Q: And the “Body Weight, mean value” ([6]; Day 3)?
A: 24.68 g

Q: What about the “Decrease rate (body weight)” value ([6]; Day 3) of the same molecule?
A: −1.32%

Q: And the “Decrease in body weight” value ([6]; Day 3 vs Day 0)?
A: -0.32 g

Q: What about the “Body Weight, mean value” ([6]; Day 7) of the same molecule?
A: 24.99 g

Q: And the “Decrease rate (body weight)” value ([6]; Day 7)?
A: −2.59%

Q: What about the “Decrease in body weight” value ([6]; Day 7 vs Day 0) of the same molecule?
A: -0.63 g

Q: What about the “Body Weight, mean value” ([6]; Day 10) of the same molecule?
A: 24.93 g

Q: And the “Decrease rate (body weight)” value ([6]; Day 10)?
A: −2.32%

Q: What about the “Decrease in body weight” value ([6]; Day 10 vs Day 0) of the same molecule?
A: -0.57 g

Q: What about the “Body Weight, mean value” ([6]; Day 14) of the same molecule?
A: 24.94 g

Q: What about the “Decrease rate (body weight)” value ([6]; Day 14) of the same molecule?
A: −2.38%

Q: And the “Decrease in body weight” value ([6]; Day 14 vs Day 0)?
A: -0.58 g

Q: And the “Body Weight, mean value” ([6]; Day 17)?
A: 25.88 g

Q: And the “Decrease rate (body weight)” value ([6]; Day 17)?
A: −6.24%

Q: And the “Decrease in body weight” value ([6]; Day 17 vs Day 0)?
A: -1.52 g

Q: What about the “Body Weight, mean value” ([6]; Day 21) of the same molecule?
A: 25.27 g

Q: What about the “Decrease rate (body weight)” value ([6]; Day 21) of the same molecule?
A: −3.75%

Q: And the “Decrease in body weight” value ([6]; Day 21 vs Day 0)?
A: -0.91 g

Q: What about the “Body Weight, mean value” ([6]; Day 24) of the same molecule?
A: 25.33 g

Q: What about the “Decrease rate (body weight)” value ([6]; Day 24) of the same molecule?
A: −3.96%

Q: What about the “Decrease in body weight” value ([6]; Day 24 vs Day 0) of the same molecule?
A: -0.97 g

Q: What about the “Body Weight, mean value” ([6]; Day 28) of the same molecule?
A: 25.31 g

Q: And the “Decrease rate (body weight)” value ([6]; Day 28)?
A: −3.90%

Q: What about the “Decrease in body weight” value ([6]; Day 28 vs Day 0) of the same molecule?
A: -0.95 g

Q: What about the “Body Weights, mean value” ([7]; Day 0) of the same molecule?
A: 24.50 g

Q: And the “Body Weights, mean value” ([7]; Day 3)?
A: 24.38 g

Q: And the “Decrease rate (body weight)” value ([7]; Day 3)?
A: 0.51%

Q: And the “Decrease in body weight” value ([7]; Day 3 vs Day 0)?
A: 0.13 g

Q: What about the “Body Weights, mean value” ([7]; Day 7) of the same molecule?
A: 25.44 g

Q: What about the “Decrease rate (body weight)” value ([7]; Day 7) of the same molecule?
A: −3.82%

Q: And the “Decrease in body weight” value ([7]; Day 7 vs Day 0)?
A: -0.94 g

Q: What about the “Body Weights, mean value” ([7]; Day 10) of the same molecule?
A: 24.50 g

Q: What about the “Decrease rate (body weight)” value ([7]; Day 10) of the same molecule?
A: 0.00%

Q: What about the “Decrease in body weight” value ([7]; Day 10 vs Day 0) of the same molecule?
A: 0.00 g

Q: What about the “Body Weights, mean value” ([7]; Day 14) of the same molecule?
A: 25.68 g

Q: What about the “Decrease rate (body weight)” value ([7]; Day 14) of the same molecule?
A: −4.83%

Q: What about the “Decrease in body weight” value ([7]; Day 14 vs Day 0) of the same molecule?
A: -1.18 g

Q: And the “Body Weights, mean value” ([7]; Day 17)?
A: 25.39 g

Q: What about the “Decrease rate (body weight)” value ([7]; Day 17) of the same molecule?
A: −3.63%

Q: And the “Decrease in body weight” value ([7]; Day 17 vs Day 0)?
A: -0.89 g

Q: And the “Body Weights, mean value” ([7]; Day 21)?
A: 26.13 g

Q: What about the “Decrease rate (body weight)” value ([7]; Day 21) of the same molecule?
A: −6.65%

Q: What about the “Decrease in body weight” value ([7]; Day 21 vs Day 0) of the same molecule?
A: -1.63 g

Q: What about the “Body Weights, mean value” ([7]; Day 24) of the same molecule?
A: 25.09 g

Q: What about the “Decrease rate (body weight)” value ([7]; Day 24) of the same molecule?
A: −2.41%

Q: What about the “Decrease in body weight” value ([7]; Day 24 vs Day 0) of the same molecule?
A: -0.59 g

Q: And the “Body Weights, mean value” ([7]; Day 28)?
A: 26.14 g

Q: And the “Decrease rate (body weight)” value ([7]; Day 28)?
A: −6.67%

Q: And the “Decrease in body weight” value ([7]; Day 28 vs Day 0)?
A: -1.64 g
